Laboratory results from article PMC9722314, “Solubility Enhancement of a Poorly Water-Soluble Drug Using Hydrotropy and Mixed Hydrotropy-Based Solid Dispersion Techniques” (Advances in Pharmacological and Pharmaceutical Sciences, 2022).
“And” between values parts separate entries of the source, which are not always exact repeats. Identical values can stand only once.

Tests used:
[1] = Equilibrium solubility of rosuvastatin calcium in single hydrotropic agent solutions; assay type: physicochemical; settings: for solubility thermodynamic at 24 h: aqueous hydrotropic agent solution, 37 °C, aqueous with cosolvent or surfactant or cyclodextrin, thermodynamic from solid
Procedure: At first, equilibrium solubility investigations were conducted with a variety of hydrotropic agents. […] In a 10 ml vial, 5 ml of a specific hydrotropic agent solution was accurately measured, and an excess of rosuvastatin calcium was added and physically agitated for 30 minutes until a saturated solution was generated. To achieve equilibrium solubility, the vial was shaken on a mechanical isothermal bath shaker at 37 ± 0.5°C for 24 hours, and the solution was allowed to equilibrate for another 24 hours. The resulting solution was filtered with a grade of 0.45 μm syringe filter. A portion of the sample was diluted with distilled water and examined at 242 nm using a UV-visibledouble-beam spectrophotometer against the respective solvent as a blank. The equilibrium solubility study was conducted in triplicate. The following formula was used for the calculation of solubility enhancement ratios:(1) Enhancement ratio=Solubility of drug in hydrotropic solution/Solubility of drug in water. Equation (1) is used for the calculation of the solubility enhancement ratio.

[2] = Equilibrium solubility of rosuvastatin calcium in mixed hydrotropic solutions; assay type: physicochemical; settings: total 40%; for solubility at 24 h: mixed hydrotropic agent solution in distilled water; for solubility at 24 h / solubility: 37 °C, aqueous with cosolvent or surfactant or cyclodextrin, thermodynamic from solid; for solubility: mixed hydrotropic solution in distilled water
Procedure: In order to create a clear solution, two to three hydrotropic agents were mixed and dissolved in distilled water. Next, an excessive amount of calcium rosuvastatin was added, and the mixture was shaken until no more rosuvastatin was dissolved. The solutions are mechanically shaken on a mechanical isothermal bath shaker at 37 ± 0.5°C for 24 hours, followed by another 24 hours of equilibration. A grade of 0.45 μm syringe filter was used to filter the resultant solution. Using a UV-visibledouble-beam spectrophotometer, a portion of the material was diluted with distilled water and analyzed at 242 nm. The equilibrium solubility studies were conducted in triplicate. To obtain optimal solubility of rosuvastatin calcium in water, a ratio of three hydrotropic agents was adjusted.

[3] = Saturated solubility study in distilled water (pure drug, solid dispersions, physical mixture); assay type: physicochemical; settings: 37 °C, thermodynamic from solid, 37 ± 0.5°C, 24 h shaking + 24 h equilibration
Procedure: To assess the solubility of pure rosuvastatin calcium, produced solid dispersions, and physical mixtures in distilled water, saturation solubility tests were performed. The saturation solubility tests were performed in triplicate according to Higuchi and Connors' technique. The excess of solid dispersions and physical mixtures were added to vials containing 10 ml of distilled water. The vials were shaken for 24 hours on a mechanical isothermal bath shaker at 37 ± 0.5°C and then left alone for another 24 hours to equilibrate. A syringe filter with a grade of 0.45 μm was used to filter the drug-containing solution. An aliquot of the filtrate was suitably diluted with the corresponding reagent, and the dilution was analyzed on a UV-visibledouble-beam spectrophotometer [18].

[4] = In vitro dissolution rate study, USP apparatus I (basket); assay type: physicochemical; settings: within 45 min; 900 ml 0.05 M citrate buffer pH 6.6, 50 rpm, 37°C, 10 mg drug; listed as pure drug
Procedure: In vitro dissolution of rosuvastatin calcium solid dispersions, physical mixtures, and the pure drug was investigated using a basket stirrer in a USP dissolution apparatus (Industrial Lab) (USP apparatus I method). The dissolution medium was 900 ml of 0.05 M citrate buffer at pH 6.6, which is recommended by the US Food and Drug Administration for dissolution studies with rosuvastatin calcium. The rotation speed was 50 rpm, and the temperature was kept constant at 37 ± 0.5°C during the experiment. Each test employed solid dispersions containing 10 mg of rosuvastatin calcium. At known intervals of time of 5, 10, 15, 20, 25, 30, and 45 minutes, 5 ml of the dissolution medium sample was removed and refilled with the same quantity of medium to maintain a consistent volume throughout the experiment. The withdrawn material was filtered using a 0.45 μm syringe filter. After dilution with a 0.05 M citrate buffer solution, the samples were spectrophotometrically analyzed by detecting the absorbance at 241 nm. […] The dissolution studies of each formulation were conducted in triplicate.

[5] = due to limited water solubility; cited from earlier work
[6] = set-up: method as in earlier work; settings: sodium salicylate (2.0 M); ref 18 (Nainwal et al.); cited from earlier work
[7] = cited from earlier work

SMILES: CC(C)c1nc(N(C)S(C)(=O)=O)nc(-c2ccc(F)cc2)c1/C=C/[C@@H](O)C[C@@H](O)CC(=O)O [rosuvastatin calcium, Rosuvastatin calcium]
- solubility thermodynamic at 24 h ([1]; citric acid 10% w/v aqueous solution): 450 ± 3 µg/mL
- solubility thermodynamic at 24 h ([1]; citric acid 20% w/v aqueous solution): 750 ± 50 µg/mL
- solubility thermodynamic at 24 h ([1]; citric acid 30% w/v aqueous solution): 780 ± 100 µg/mL
- solubility thermodynamic at 24 h ([1]; citric acid 40% w/v aqueous solution): 930 ± 170 µg/mL
- solubility thermodynamic at 24 h ([1]; mannitol 10% w/v aqueous solution): 490 ± 130 µg/mL
- solubility thermodynamic at 24 h ([1]; mannitol 20% w/v aqueous solution): 599 ± 90 µg/mL
- solubility thermodynamic at 24 h ([1]; mannitol 30% w/v aqueous solution): 660 ± 100 µg/mL
- solubility thermodynamic at 24 h ([1]; mannitol 40% w/v aqueous solution): 890 ± 28 µg/mL
- solubility thermodynamic at 24 h ([1]; sodium benzoate 10% w/v aqueous solution): 22900 ± 1460 µg/mL
- solubility thermodynamic at 24 h ([1]; sodium benzoate 20% w/v aqueous solution): 39000 ± 4530 µg/mL
- solubility thermodynamic at 24 h ([1]; sodium benzoate 30% w/v aqueous solution): 103000 ± 14100 µg/mL
- solubility thermodynamic at 24 h ([1]; sodium benzoate 40% w/v aqueous solution): 119000 ± 13800 µg/mL
- solubility thermodynamic at 24 h ([1]; sodium salicylate 10% w/v aqueous solution): 27000 ± 1040 µg/mL
- solubility thermodynamic at 24 h ([1]; sodium salicylate 20% w/v aqueous solution): 49900 ± 2580 µg/mL
- solubility thermodynamic at 24 h ([1]; sodium salicylate 30% w/v aqueous solution): 97300 ± 4130 µg/mL
- solubility thermodynamic at 24 h ([1]; sodium salicylate 40% w/v aqueous solution): 125000 ± 1800 µg/mL
- solubility thermodynamic at 24 h ([1]; urea 10% w/v aqueous solution): 850 ± 70 µg/mL
- solubility thermodynamic at 24 h ([1]; urea 20% w/v aqueous solution): 1060 ± 80 µg/mL
- solubility thermodynamic at 24 h ([1]; urea 30% w/v aqueous solution): 1130 ± 160 µg/mL
- solubility thermodynamic at 24 h ([1]; urea 40% w/v aqueous solution): 1360 ± 100 µg/mL
- Solubility enhancement ratio ([1]; citric acid solution vs water (fits the 40% w/v value)): 2.192
- Solubility enhancement ratio ([1]; mannitol solution vs water (fits the 40% w/v value)): 2.085
- Solubility enhancement ratio ([1]; sodium benzoate solution vs water (fits the 40% w/v value)): 277.556
- Solubility enhancement ratio ([1]; sodium salicylate solution (40%) vs water, listed as Rosuvastatin calcium): 292.961
- Solubility enhancement ratio ([1]; sodium salicylate solution (40%) vs water, listed as rosuvastatin): 292.9
- Solubility enhancement ratio ([1]; urea solution vs water (fits the 40% w/v value)): 3.198
- Solubility enhancement ratio ([2]; SS : C 20 : 20 % w/v, vs water): 76.015
- Solubility enhancement ratio ([2]; SS : M 20 : 20 % w/v, vs water): 128.66
- Solubility enhancement ratio ([2]; SS : SB 5 : 35 % w/v, vs water): 189.78
- Solubility enhancement ratio ([2]; SS : SB 10 : 30 % w/v, vs water): 120.01
- Solubility enhancement ratio ([2]; SS : SB 15 : 25 % w/v, vs water): 389.37
- Solubility enhancement ratio ([2]; SS : SB 20 : 20 % w/v, vs water): 421.02
- Solubility enhancement ratio ([2]; SS : SB : C, each 13.333 % w/v, vs water): 112.005
- Solubility enhancement ratio ([2]; SS : SB : M, each 13.333 % w/v, vs water): 172.722
- Solubility enhancement ratio ([2]; SS : SB : U 10 : 15 : 15 % w/v, vs water): 200.265
- Solubility enhancement ratio ([2]; SS : SB : U 20 : 05 : 15 % w/v, vs water): 210.314
- Solubility enhancement ratio ([2]; SS : SB : U 20 : 10 : 10 % w/v, vs water): 235.414
- Solubility enhancement ratio ([2]; SS : SB : U 20 : 15 : 05 % w/v, vs water): 301.328
- Solubility enhancement ratio ([2]; SS : SB : U, each 13.333 % w/v, vs distilled water): 449.137
- Solubility enhancement ratio ([2]; SS : SB : U, each 13.333 % w/v, vs distilled water, listed as rosuvastatin): 449
- Solubility enhancement ratio ([2]; SS : U 20 : 20 % w/v, vs water): 181.65
- solubility at 24 h ([2]; SS : C 20 : 20 % w/v): 32.5 ± 0.52 mg/mL
- solubility at 24 h ([2]; SS : M 20 : 20 % w/v): 55 ± 2.72 mg/mL
- solubility at 24 h ([2]; SS : SB 5 : 35 % w/v): 81.1 ± 1.54 mg/mL
- solubility at 24 h ([2]; SS : SB 10 : 30 % w/v): 51.3 ± 3.38 mg/mL
- solubility at 24 h ([2]; SS : SB 20 : 20 % w/v): 180 ± 40.1 mg/mL
- solubility at 24 h ([2]; SS : SB : U, each 13.333 % w/v): 192 ± 38.6 mg/mL
- solubility at 24 h ([2]; SS : U 20 : 20 % w/v): 77.6 ± 2.31 mg/mL
- solubility ([2]; SS : SB 15 : 25 % w/v): 166 ± 7.24 mg/mL
- solubility ([2]; SS : SB : C, each 13.333 % w/v): 47.9 ± 1.43 mg/mL
- solubility ([2]; SS : SB : M, each 13.333 % w/v): 73.8 ± 1.49 mg/mL
- solubility ([2]; SS : SB : U 10 : 15 : 15 % w/v): 85.6 ± 1.74 mg/mL
- solubility ([2]; SS : SB : U 20 : 05 : 15 % w/v): 89.9 ± 5.18 mg/mL
- solubility ([2]; SS : SB : U 20 : 10 : 10 % w/v): 101 ± 12.7 mg/mL
- solubility ([2]; SS : SB : U 20 : 15 : 05 % w/v): 129 ± 4.02 mg/mL
- solubility ([2]; SS : SB : U, each 13.333 % w/v): 192 ± 38.6 mg/mL
- solubility [3]: 427 ± 5 µg/mL
- In vitro drug release [4]: 40.73 ± 4.44% and 40.73%
- Biopharmaceutics classification system (BCS) class [5]: class II
- Increase in solubility [6]: 55 folds
- t1/2 [7]: 19 h
- Oral bioavailability ([7]; oral): roughly 20%
